Measurements published in ChEMBL document CHEMBL1201862, “PubChem BioAssay data set” (2004).
The source made the active and inactive calls.

How the values were obtained:
[1] = target: T1, Low molecular weight phosphotyrosine protein phosphatase (Homo sapiens, UniProt P24666); assay: LMPTP phosphatase inhibitors, dose response, biochemical, OMFP substrate, fluorescence intensity, set 2 (AID 743307); type: functional
T1 sequence (P24666 whole entry): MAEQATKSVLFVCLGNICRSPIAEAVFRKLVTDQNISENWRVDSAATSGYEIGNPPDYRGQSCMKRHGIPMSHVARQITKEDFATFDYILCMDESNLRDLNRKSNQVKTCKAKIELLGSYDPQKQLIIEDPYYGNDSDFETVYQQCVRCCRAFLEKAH

[2] = target: T1, Low molecular weight phosphotyrosine protein phosphatase; assay: LMPTP phosphatase inhibitors, colorimetric pNPP readout, dose response, orthogonal assay, biochemical, absorbance, pNPP substrate, LMPTP-A isoform, set 2 (AID 743308); type: functional
[3] = target: T1, Low molecular weight phosphotyrosine protein phosphatase; type: functional; conditions: read-out: IC50_Mean
[4] = inhibitors of Vif binding to APOBEC3G peptide, primary screen, biochemical, TR-FRET, GST-Vif 1-94, biotin-A3G peptide, dose response retest (AID 1117319); type: functional;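 note: TR-FRET signal of purified GST-Vif binding a biotinylated A3G peptide; inhibitors lower the FRET signal by blocking Vif and A3G binding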
Estrogen receptor beta [5] = target: T2, Estrogen receptor beta (Homo sapiens, UniProt Q92731);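 note: recombinant ER-beta bound to coactivator SRC1 peptide in presence of estradiol agonist; inhibitors block coactivator peptide binding and lower the FRET signal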
Cysteine protease ATG4B = target: T3, Cysteine protease ATG4B (Homo sapiens, UniProt Q9Y4P1); type: functional;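 note: Fluorescence-based dose-response confirmation assay measuring inhibition of ATG4B activity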
T3 sequence (Q9Y4P1 whole entry): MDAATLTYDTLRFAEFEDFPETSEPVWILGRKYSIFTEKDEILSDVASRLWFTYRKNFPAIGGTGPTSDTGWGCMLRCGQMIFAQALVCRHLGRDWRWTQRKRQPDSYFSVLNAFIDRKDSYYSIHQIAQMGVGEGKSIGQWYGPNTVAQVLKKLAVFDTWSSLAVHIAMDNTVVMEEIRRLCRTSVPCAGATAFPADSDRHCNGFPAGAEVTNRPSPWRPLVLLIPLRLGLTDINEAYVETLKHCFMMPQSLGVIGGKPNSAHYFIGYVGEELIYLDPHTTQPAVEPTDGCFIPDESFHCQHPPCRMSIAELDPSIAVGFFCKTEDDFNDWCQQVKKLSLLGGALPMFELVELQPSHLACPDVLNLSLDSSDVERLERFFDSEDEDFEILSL

[6] = Artemis endonuclease inhibitor potency, dose response, biochemical, fluorescence intensity (AID 720701); type: functional;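 note: Artemis endonuclease enzyme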
Estrogen receptor = target: T4, Estrogen receptor (Homo sapiens, UniProt P03372);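 note: potency for inhibiting coactivator peptide recruitment to the receptor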
T4 sequence (P03372 whole entry): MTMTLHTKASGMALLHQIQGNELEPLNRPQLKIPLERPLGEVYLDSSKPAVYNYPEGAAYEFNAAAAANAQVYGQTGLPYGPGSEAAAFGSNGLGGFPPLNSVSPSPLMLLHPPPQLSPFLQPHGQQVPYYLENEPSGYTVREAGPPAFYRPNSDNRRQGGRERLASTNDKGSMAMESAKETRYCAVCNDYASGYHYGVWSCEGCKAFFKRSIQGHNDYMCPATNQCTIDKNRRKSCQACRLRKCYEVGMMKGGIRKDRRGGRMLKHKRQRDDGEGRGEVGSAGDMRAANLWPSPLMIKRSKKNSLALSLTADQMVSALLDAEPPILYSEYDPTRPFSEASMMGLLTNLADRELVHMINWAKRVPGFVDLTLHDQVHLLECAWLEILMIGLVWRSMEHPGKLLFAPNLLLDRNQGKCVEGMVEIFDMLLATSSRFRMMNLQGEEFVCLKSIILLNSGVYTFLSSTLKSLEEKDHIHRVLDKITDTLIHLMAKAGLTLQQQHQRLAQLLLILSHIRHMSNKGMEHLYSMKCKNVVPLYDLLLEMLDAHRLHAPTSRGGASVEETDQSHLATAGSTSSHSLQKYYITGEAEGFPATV

[7] = target: Photoreceptor-specific nuclear receptor (Homo sapiens, UniProt Q9Y5X4); type: functional;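 note: potency for compounds that break the NR2E3 corepressor complex and count as activators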
[8] = target: FAD-linked sulfhydryl oxidase ALR (Homo sapiens, UniProt P55789); assay: inhibitors of human ALR sulfhydryl oxidase, dose response, biochemical, H2O2 detection, luminescence, cherry-pick (AID 493248)
Large T antigen = Large T antigen (Simian virus 40, UniProt P03070); type: functional, Betapolyomavirus macacae;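 note: Confirmatory-stage PubChem screen for compounds that inhibit SV40 T antigen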
Estrogen receptor beta [9] = target: T2, Estrogen receptor beta; assay: ERβ–SRC-3 coactivator interaction inhibitors, confirmation, orthogonal assay, biochemical, ELISA, streptavidin-HRP readout (AID 1060)
[10] = target: Bifunctional protein GlmU (Mycobacterium tuberculosis, UniProt P9WMN3); assay: Inhibitors of Mycobacterial Glucosamine-1-phosphate acetyl transferase (GlmU). Secondary screen.; set-up: species or system Mycobacterium tuberculosis H37Rv
Phospholipase A2 = Phospholipase A2 (Homo sapiens, UniProt P04054); type: functional;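 note: confirmatory dose-response counterscreen on phospholipase A2, testing hits that came from an ultra-high-throughput screen for ATG4B inhibitors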
[11] = target: Peroxisome proliferator-activated receptor gamma/Nuclear receptor corepressor 2 (Homo sapiens, UniProt P37231+Q9Y618); type: functional
[12] = target: E3 ubiquitin-protein ligase Mdm2 (Homo sapiens, UniProt Q00987); assay: enhancers of MDM2-luciferase reporter signal, concentration-effect titration, project on inhibitors of MDM2 ubiquitin ligase, cellular assay, luminescent readout, 384-well plate format (AID 1394); type: functional;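 note: MDM2 E3 inhibitors raise luminescence so EC50 is for signal enhancement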
[13] = Luminescence Cell-Based Dose Response HTS to Identify Activators of Luciferase Translation or Activity in H4 […] Cells. [Related pubchem assays: 1829 (Project Summary), 1814 (Primary HTS)]; type: functional
[14] = Luminescence Cell-Based Dose Response to Identify Activators of Luciferase Translation or Activity in H4-C Neuroglioblastoma Cells. [Related pubchem assays: 1829 (Project Summary), 1814 (Primary HTS)]; type: functional
[15] = Luminescence Cell-Based Dose Response to Identify Activators of 5'UTR Stem-Loop Driven Prion Protein mRNA Translation in H4-C Neuroglioblastoma Cells. [Related pubchem assays: 1829 (Project Summary), 1814 (Primary HTS)]; type: functional
[16] = Luminescence Cell-Based Dose Confirmation to Identify Activators of 5'UTR Stem-Loop Driven Alpha-Synuclein mRNA Translation in H4 Neuroglioblastoma Cells. [Related pubchem assays: 1829 (Project Summary), 1814 (Primary HTS)]; type: functional
[17] = Luminescence Cell-Based Dose Confirmation HTS to Identify Activators of 5'UTR Stem-Loop Driven Alpha-Synuclein mRNA Translation in H4 Neuroglioblastoma Cells. [Related pubchem assays: 1829 (Project Summary), 1814 (Primary HTS)]; type: functional
H4 = assay: Luminescence Cell-Based Dose Response HTS to Identify Activators of 5'UTR Stem-Loop Driven Prion Protein mRNA Translation in H4 Neuroglioblastoma Cells. [Related pubchem assays: 1829 (Project Summary), 1814 (Primary HTS)]; type: functional; conditions: Homo sapiens
[18] = target: Heat shock protein HSP 90-alpha (Homo sapiens, UniProt P07900); assay: Luminescence-based dose response biochemical high throughput screening assay for inhibitors of the Heat Shock Protein 90 (HSP90). [Related pubchem assays: 1831 (Summary AID.), 1846 (Confirmation screen.), 1789 (Primary screen.)]
Cytochrome P450 2D6 = Cytochrome P450 2D6 (Homo sapiens, UniProt P10635);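 note: CYP2D6 member of a cytochrome P450 panel assay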
[19] = target: Protein-tyrosine kinase 2-beta (Homo sapiens, UniProt Q14289);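 note: potency of inhibitors of PYK2 kinase phosphorylation of poly-GT substrate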
Cytochrome P450 3A4 = Cytochrome P450 3A4 (Homo sapiens, UniProt P08684);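 note: CYP3A4 tested as one member of a cytochrome P450 panel screen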
[20] = target: Mitogen-activated protein kinase 10 (Homo sapiens, UniProt P53779); assay: Dose response biochemical screening assay for inhibitors of c-Jun N-Terminal Kinase 3 (JNK3). [Related pubchem assays: 746 ]
[21] = target: RNA-editing ligase 1, mitochondrial (Trypanosoma brucei brucei, UniProt P86926); assay: TbREL1 ligase inhibitors, dose response, biochemical, fluorescence, Trypanosoma brucei (AID 1117295); type: functional
[22] = target: T5, Mannose-6-phosphate isomerase (Homo sapiens, UniProt P34949); assay: human PMI inhibitors, high substrate, primary screen, biochemical, fluorescence intensity, high mannose 6-phosphate (AID 1220)
T5 sequence (P34949 whole entry): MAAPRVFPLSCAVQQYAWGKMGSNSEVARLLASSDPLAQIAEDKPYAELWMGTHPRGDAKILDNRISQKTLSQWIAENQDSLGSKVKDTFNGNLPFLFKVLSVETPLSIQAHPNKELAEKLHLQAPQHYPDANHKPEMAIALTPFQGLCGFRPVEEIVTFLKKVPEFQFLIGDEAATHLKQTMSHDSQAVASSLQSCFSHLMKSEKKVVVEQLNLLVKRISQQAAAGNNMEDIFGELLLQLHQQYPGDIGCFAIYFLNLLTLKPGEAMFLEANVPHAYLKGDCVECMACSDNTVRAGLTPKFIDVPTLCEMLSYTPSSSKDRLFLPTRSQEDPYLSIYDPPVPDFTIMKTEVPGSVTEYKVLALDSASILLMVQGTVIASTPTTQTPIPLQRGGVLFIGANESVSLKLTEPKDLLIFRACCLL

Leucine aminopeptidase = target: T6, Leucine aminopeptidase (Plasmodium falciparum 3D7, UniProt Q8IL11); assay: P. falciparum M17LAP inhibitors, primary screen, biochemical, fluorogenic H-Leu-NHMec substrate, 1536-well (AID 1619); type: functional
T6 sequence (Q8IL11 whole entry): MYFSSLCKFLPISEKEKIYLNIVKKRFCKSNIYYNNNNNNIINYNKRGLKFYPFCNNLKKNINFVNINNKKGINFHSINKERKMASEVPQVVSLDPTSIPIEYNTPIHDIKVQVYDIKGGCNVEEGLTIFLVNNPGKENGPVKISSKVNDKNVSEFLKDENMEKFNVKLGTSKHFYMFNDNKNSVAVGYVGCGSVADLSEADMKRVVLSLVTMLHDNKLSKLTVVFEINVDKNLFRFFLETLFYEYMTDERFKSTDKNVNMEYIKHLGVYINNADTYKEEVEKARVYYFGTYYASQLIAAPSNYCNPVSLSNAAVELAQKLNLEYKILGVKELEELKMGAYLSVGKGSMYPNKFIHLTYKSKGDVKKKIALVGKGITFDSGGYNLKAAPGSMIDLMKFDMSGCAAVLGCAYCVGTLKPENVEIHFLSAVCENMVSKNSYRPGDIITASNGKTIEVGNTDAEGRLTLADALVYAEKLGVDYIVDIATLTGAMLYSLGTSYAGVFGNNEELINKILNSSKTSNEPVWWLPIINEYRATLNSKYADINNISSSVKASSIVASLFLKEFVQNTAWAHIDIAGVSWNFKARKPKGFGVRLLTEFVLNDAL

Vero = Vero cell cytotoxicity, cytotoxicity control for flavivirus capping enzyme inhibitors (AID 588742); type: functional; conditions: Chlorocebus sabaeus
[23] = C. albicans growth with fluconazole, confirmation, fluorescence, retest (AID 2467); type: functional, cell-based
[24] = THP-1 cell cytotoxicity, dose response, cytotoxicity control for Vif-APOBEC3G degradation inhibitor project, THP-1 cells (AID 1117359); type: functional; conditions: Human immunodeficiency virus 1, THP-1
Genome polyprotein = Genome polyprotein (dengue virus type 2, UniProt P29990); assay: Dengue-2 NS5 methyltransferase inhibitors, primary screen, biochemical, confirmation dose response (AID 588689); type: functional
[25] = target: Glucose-6-phosphate 1-dehydrogenase (Homo sapiens, UniProt P11413); assay: human G6PD enzyme inhibitors, dose response, selectivity assay for P. falciparum G6PD inhibitor project, biochemical, fluorescence (AID 504792); type: functional
[26] = NIH-3T3 fibroblast cytotoxicity, dose response, cytotoxicity control, cell-based, fluorescence, Alamar Blue, secondary assay (AID 2327); type: functional;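 note: NIH-3T3 mouse fibroblasts cultured with fluconazole at 8 µg/mL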
Protein Tat = target: T7, Protein Tat (Human immunodeficiency virus type 1 group M subtype B (isolate HXB2)(HIV-1), UniProt P04608); type: functional;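 note: tat binding to TAR RNA read out by fluorescence polarization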
T7 sequence (P04608 whole entry): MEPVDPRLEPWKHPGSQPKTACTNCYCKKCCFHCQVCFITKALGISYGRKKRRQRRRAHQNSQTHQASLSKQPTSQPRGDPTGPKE

[27] = P. falciparum Dd2 growth inhibitors, dose response, SYBR Green, dry powder samples, set 9 (AID 1159568); type: functional, cell-based
[28] = target: Metabotropic glutamate receptor 7 (Homo sapiens, UniProt Q14831); assay: mGlu7 positive allosteric modulators, dose response, cell-based, calcium mobilization, Galpha15 (AID 743384); type: functional
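Throughout, for IC50 Mean: Dose-response confirmation assay measuring inhibition of LMPTP enzyme activity by fluorescence intensity read-out.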

T2 sequence (Q92731 whole entry): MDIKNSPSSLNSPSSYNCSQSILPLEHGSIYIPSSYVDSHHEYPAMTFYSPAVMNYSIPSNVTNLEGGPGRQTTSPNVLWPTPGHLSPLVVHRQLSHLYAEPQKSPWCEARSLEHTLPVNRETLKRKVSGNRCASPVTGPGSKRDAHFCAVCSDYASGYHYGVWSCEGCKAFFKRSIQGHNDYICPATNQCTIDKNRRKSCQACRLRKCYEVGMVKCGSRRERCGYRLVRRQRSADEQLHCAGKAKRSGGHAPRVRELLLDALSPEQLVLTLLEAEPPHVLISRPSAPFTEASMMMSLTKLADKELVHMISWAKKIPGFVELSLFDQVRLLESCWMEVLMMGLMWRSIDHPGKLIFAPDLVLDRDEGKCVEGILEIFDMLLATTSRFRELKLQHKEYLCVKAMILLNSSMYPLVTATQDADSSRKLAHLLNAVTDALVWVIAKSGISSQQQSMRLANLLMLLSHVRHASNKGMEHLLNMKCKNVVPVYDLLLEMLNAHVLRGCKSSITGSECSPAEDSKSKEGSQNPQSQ
Metabotropic glutamate receptor 7, sequence (Q14831 whole entry): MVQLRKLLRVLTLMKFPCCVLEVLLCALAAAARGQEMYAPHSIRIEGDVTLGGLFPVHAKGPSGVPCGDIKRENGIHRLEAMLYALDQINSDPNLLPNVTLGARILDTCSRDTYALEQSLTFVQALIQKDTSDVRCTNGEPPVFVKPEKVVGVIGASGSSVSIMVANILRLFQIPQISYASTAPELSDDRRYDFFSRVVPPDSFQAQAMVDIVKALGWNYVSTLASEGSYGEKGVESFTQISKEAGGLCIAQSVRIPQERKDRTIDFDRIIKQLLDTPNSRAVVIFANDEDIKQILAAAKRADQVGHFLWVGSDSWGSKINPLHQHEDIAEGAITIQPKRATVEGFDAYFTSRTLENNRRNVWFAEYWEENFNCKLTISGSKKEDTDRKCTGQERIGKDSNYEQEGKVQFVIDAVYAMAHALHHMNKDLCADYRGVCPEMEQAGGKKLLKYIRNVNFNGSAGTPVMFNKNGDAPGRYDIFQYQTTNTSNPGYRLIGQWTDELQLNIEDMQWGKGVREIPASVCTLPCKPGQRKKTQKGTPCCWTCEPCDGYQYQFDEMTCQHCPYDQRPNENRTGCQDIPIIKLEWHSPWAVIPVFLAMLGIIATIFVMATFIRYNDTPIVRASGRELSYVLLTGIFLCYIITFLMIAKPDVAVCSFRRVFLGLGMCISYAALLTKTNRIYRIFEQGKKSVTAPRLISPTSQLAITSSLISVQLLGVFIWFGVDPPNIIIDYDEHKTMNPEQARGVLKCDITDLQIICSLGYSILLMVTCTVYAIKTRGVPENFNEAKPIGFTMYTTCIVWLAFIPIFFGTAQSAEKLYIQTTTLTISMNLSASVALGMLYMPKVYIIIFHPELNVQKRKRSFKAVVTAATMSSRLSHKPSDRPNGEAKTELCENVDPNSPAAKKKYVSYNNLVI
Large T antigen, sequence (P03070 whole entry): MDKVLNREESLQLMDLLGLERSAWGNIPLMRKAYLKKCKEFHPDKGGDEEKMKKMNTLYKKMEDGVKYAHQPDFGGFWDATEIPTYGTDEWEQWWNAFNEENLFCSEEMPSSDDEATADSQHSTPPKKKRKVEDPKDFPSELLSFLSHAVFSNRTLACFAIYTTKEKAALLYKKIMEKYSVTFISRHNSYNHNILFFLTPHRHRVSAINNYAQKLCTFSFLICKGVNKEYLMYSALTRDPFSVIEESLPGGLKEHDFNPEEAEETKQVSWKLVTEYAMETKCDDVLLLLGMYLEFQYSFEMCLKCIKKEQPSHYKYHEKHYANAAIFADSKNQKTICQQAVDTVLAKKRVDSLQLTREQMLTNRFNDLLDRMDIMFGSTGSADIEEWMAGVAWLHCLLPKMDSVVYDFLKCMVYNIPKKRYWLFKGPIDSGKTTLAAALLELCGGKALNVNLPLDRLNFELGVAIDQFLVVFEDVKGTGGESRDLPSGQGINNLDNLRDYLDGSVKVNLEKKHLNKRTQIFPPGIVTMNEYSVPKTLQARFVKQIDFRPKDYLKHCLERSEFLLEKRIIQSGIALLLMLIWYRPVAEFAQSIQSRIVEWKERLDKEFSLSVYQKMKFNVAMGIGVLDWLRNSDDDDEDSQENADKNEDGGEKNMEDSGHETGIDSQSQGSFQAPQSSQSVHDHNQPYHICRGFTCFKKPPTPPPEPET
E3 ubiquitin-protein ligase Mdm2, sequence (Q00987 whole entry): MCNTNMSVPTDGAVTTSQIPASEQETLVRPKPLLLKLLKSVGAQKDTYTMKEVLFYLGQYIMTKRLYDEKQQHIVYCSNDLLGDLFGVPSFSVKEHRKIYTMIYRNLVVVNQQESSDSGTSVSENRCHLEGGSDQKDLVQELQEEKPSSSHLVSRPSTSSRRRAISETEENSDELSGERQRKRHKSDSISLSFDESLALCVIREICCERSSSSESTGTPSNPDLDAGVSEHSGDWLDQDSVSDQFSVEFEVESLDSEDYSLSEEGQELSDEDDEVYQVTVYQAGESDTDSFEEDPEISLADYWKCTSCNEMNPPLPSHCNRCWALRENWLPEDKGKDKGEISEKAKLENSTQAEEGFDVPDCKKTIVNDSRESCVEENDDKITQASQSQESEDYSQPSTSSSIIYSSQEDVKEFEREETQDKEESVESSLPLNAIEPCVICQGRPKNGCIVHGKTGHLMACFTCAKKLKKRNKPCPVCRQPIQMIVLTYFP
RNA-editing ligase 1, mitochondrial, sequence (P86926 whole entry): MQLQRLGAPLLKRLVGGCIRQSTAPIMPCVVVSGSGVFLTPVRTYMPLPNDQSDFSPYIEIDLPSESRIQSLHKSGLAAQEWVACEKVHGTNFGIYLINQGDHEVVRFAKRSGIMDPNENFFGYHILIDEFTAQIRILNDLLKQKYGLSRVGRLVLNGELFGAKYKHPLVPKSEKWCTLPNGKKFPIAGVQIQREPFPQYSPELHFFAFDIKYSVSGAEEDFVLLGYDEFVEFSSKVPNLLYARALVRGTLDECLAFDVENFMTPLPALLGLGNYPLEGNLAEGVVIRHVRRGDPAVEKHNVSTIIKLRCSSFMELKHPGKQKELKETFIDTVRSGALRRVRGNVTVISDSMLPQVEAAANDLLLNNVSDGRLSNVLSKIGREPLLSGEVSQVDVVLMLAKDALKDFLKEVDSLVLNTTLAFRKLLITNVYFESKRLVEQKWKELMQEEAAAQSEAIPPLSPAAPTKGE
Cytochrome P450 2D6, sequence (P10635 whole entry): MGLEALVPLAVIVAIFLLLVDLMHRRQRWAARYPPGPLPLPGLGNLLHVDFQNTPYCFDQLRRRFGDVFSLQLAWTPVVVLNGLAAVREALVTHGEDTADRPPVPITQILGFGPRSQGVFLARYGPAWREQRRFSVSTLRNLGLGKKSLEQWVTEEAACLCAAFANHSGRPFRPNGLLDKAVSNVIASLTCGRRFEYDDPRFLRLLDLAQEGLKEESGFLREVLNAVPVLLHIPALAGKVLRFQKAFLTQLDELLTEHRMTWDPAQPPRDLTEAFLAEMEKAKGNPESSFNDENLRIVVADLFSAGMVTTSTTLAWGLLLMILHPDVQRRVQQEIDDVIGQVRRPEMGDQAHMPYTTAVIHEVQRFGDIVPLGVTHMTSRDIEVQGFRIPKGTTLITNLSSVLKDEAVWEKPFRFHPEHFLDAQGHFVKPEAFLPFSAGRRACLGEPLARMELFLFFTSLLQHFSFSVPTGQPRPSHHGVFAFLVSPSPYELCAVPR
Cytochrome P450 3A4, sequence (P08684 whole entry): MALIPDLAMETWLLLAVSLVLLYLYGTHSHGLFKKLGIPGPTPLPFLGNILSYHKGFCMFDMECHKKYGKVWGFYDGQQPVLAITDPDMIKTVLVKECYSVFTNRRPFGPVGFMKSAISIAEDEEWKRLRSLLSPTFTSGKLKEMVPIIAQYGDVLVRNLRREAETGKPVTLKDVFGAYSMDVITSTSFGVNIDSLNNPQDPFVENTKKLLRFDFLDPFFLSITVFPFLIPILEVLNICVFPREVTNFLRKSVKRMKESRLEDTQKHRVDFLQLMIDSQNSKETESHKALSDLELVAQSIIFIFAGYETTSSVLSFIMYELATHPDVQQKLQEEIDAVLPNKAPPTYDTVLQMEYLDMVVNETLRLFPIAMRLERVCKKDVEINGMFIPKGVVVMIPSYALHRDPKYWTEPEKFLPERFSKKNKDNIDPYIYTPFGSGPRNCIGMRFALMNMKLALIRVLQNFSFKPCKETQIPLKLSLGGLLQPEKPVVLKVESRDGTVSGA
Bifunctional protein GlmU, sequence (P9WMN3 whole entry): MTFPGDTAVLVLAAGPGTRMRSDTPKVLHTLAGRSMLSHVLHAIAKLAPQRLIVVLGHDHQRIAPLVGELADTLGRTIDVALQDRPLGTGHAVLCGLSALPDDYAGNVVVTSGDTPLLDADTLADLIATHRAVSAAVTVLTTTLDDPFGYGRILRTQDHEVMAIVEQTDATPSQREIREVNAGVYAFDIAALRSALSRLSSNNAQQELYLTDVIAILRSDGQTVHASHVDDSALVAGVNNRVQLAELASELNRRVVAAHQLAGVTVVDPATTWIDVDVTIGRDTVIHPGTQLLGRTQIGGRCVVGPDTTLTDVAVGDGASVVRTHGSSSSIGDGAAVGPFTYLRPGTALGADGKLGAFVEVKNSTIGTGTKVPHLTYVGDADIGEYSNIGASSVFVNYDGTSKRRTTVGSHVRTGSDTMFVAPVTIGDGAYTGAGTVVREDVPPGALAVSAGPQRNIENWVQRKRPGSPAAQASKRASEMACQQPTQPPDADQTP
Photoreceptor-specific nuclear receptor, sequence (Q9Y5X4 whole entry): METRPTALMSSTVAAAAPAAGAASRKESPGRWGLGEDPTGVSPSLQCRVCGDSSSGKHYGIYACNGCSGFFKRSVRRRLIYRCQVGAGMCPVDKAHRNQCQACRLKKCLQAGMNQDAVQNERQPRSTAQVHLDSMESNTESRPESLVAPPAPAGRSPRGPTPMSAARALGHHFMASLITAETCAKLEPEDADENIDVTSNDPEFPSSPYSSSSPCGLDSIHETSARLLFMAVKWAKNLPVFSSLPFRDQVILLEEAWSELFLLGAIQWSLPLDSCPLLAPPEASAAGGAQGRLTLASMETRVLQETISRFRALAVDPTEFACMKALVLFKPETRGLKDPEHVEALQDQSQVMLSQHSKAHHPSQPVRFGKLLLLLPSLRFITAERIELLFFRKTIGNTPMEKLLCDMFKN

## c1ccc(-c2nc(NC3CCCC3)c3ccccc3n2)cc1
[1]
  IC50: 21.1 µM (inactive)
[2]
  IC50: > 80 µM (inactive)
[3]
  IC50: 10 µM (active)

## Cc1ccc(C(=O)N2CCN(c3ccccc3)CC2)cc1C
[4]
  IC50: > 100 µM (active)

## O=C(O)c1cc(-c2ccco2)nc2ccc(Br)cc12
Estrogen receptor beta [5]
  IC50: 9.82 µM (active)
Cysteine protease ATG4B
  IC50: 9.96 µM (active)
[6]
  IC50: > 20 µM (inactive)
Estrogen receptor
  IC50: 47.6 µM (not active)
[7]
  IC50: > 39.8 µM (not active)
[8]
  AC50: 0.785 µM (active)
Large T antigen
  IC50: 78.6 µM (active)
Estrogen receptor beta [9]
  IC50: < 0.023 µM (not active)
[10]
  IC50: 81.9 µM (active)
Phospholipase A2
  IC50: 12.2 µM (active)
[11]
  IC50: 1.38 µM (active)

## COc1ccc(OC)c(CNn2c(-c3ccccc3F)nc3ccccc3c2=O)c1
[12]
  EC50: 85 µM (not active)

## CCOC(=O)c1sc(NC(=O)c2ccc(C)o2)nc1C
[13]
  EC50: < 0.1 µM (inconclusive)
[14]
  EC50: 0.421 µM (active)
[15]
  EC50: 0.541 µM (active)
[16]
  EC50: 0.793 µM (active)
[17]
  EC50: 0.306 µM (active)
H4
  EC50: 3.76 µM (active)
[18]
  IC50: 6.55 µM (active)

## CCOC(=O)c1cccc2c1-c1ccccc1/C2=N/O
Cytochrome P450 2D6
  AC50: inconclusive
[19]
  IC50: 7.48 µM (active)
Cytochrome P450 3A4
  AC50: 28.2 µM (inconclusive)
[20]
  IC50: 11.5 µM (not active)

## CC/N=c1\scc(C)n1/N=C/c1ccc(O)c(O)c1O
[21]
  IC50: > 96.6 µM (inactive)
[22]
  IC50: 12 µM (active)
Leucine aminopeptidase
  IC50: 82.3 µM (active)
Vero
  CC50: > 40 µM (active)
[23]
  EC50: > 38 µM (not active)
[24]
  CC50: 29.6 µM (active)
Genome polyprotein
  IC50: 21.4 µM (active)
[25]
  IC50: 57.4 µM (inactive)
[26]
  EC50: > 150 µM (inactive)
Protein Tat
  IC50: 54.4 µM (inconclusive)

## C[C@@H]1CN([C@H](C)CO)C(=O)c2cc(N(C)C)ccc2O[C@@H](C)CCCCO[C@@H]1CN(C)S(=O)(=O)c1ccc(F)cc1
[27]
  AC50: 12.1 µM (active)

## Cc1ccc(CSCC(=O)c2cc(C)n(-c3ccc(OC(F)F)cc3)c2C)cc1
[28]
  EC50: 3.16 µM (active)
